# Results: PubChem BioAssay AID1963450 (Molecular Pharmacology Branch, DTP, NCI, 2024)
# Test system: 556581-035-R-J1-PDC complex spheroid growth
# Assay: Anticancer human tumor 556581-035-R-J1-PDC patient-derived ovarian carcinoma cell line growth inhibition [Asc]
# Conditions: for IC50: curve of first compound; for viability, T/C: stronger effect = lower value
# In short: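 Tumor cells were grown as complex spheroids with human endothelial cells (HUVEC) and human mesenchymal stem cells as stroma. Agents were tested alone and in combination, in half-log steps down from the clinical Cmax, or from 10 microM where Cmax was unknown.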
# [1] = second compound 0.1 µM, first compound 0.00316 µM
# [2] = second compound 0.1 µM, first compound 0.01 µM
# [3] = second compound 0.1 µM, first compound 0.0316 µM
# [4] = second compound 0.1 µM, first compound 0.1 µM
# [5] = second compound 0.316 µM, first compound 0.00316 µM
# [6] = second compound 0.316 µM, first compound 0.01 µM
# [7] = second compound 0.316 µM, first compound 0.0316 µM
# [8] = second compound 0.316 µM, first compound 0.1 µM
# [9] = second compound 1 µM, first compound 0.00316 µM
# [10] = second compound 1 µM, first compound 0.01 µM
# [11] = second compound 1 µM, first compound 0.0316 µM
# [12] = second compound 1 µM, first compound 0.1 µM
# 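Note: spheroids exposed to agents for 7 days before viability read.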
structure (smiles),measurement,setting,value
Cn1ncnc1[C@H]1c2n[nH]c(=O)c3cc(F)cc(c23)N[C@@H]1c1ccc(F)cc1 + CNC(C)C(=O)NC1CN(S(=O)(=O)c2cccc(S(=O)(=O)N3CCC4CCC(C(=O)NC(c5ccccc5)c5ccccc5)N4C(=O)C(NC(=O)C(C)NC)C3)c2)CCC2CCC(C(=O)NC(c3ccccc3)c3ccccc3)N2C1=O,IC50,second compound 0.01 µM,> 100 nM
same,IC50,second compound 0.0316 µM,> 100 nM
same,IC50,second compound 0.1 µM,> 100 nM
same,IC50,second compound 0.316 µM,> 100 nM
same,IC50,second compound 1 µM,> 100 nM
same,"viability, T/C","second compound 0.01 µM, first compound 0.000316 µM",69.2%
same,"viability, T/C","second compound 0.01 µM, first compound 0.001 µM",69.1%
same,"viability, T/C","second compound 0.01 µM, first compound 0.00316 µM",80.4%
same,"viability, T/C","second compound 0.01 µM, first compound 0.01 µM",83.8%
same,"viability, T/C","second compound 0.01 µM, first compound 0.0316 µM",71.4%
same,"viability, T/C","second compound 0.01 µM, first compound 0.1 µM",72.9%
same,"viability, T/C","second compound 0.0316 µM, first compound 0.000316 µM",84.4%
same,"viability, T/C","second compound 0.0316 µM, first compound 0.001 µM",98.2%
same,"viability, T/C","second compound 0.0316 µM, first compound 0.00316 µM",79.2%
same,"viability, T/C","second compound 0.0316 µM, first compound 0.01 µM",77%
same,"viability, T/C","second compound 0.0316 µM, first compound 0.0316 µM",89.9%
same,"viability, T/C","second compound 0.0316 µM, first compound 0.1 µM",88.8%
same,"viability, T/C","second compound 0.1 µM, first compound 0.000316 µM",92.7%
same,"viability, T/C","second compound 0.1 µM, first compound 0.001 µM",73.7%
same,"viability, T/C",[1],65.5%
same,"viability, T/C",[2],69.2%
same,"viability, T/C",[3],69.2%
same,"viability, T/C",[4],62.2%
same,"viability, T/C","second compound 0.316 µM, first compound 0.000316 µM",76.3%
same,"viability, T/C","second compound 0.316 µM, first compound 0.001 µM",74%
same,"viability, T/C",[5],63.8%
same,"viability, T/C",[6],74%
same,"viability, T/C",[7],77.4%
same,"viability, T/C",[8],69.9%
same,"viability, T/C","second compound 1 µM, first compound 0.000316 µM",78.8%
same,"viability, T/C","second compound 1 µM, first compound 0.001 µM",77.6%
same,"viability, T/C",[9],71.1%
same,"viability, T/C",[10],69.5%
same,"viability, T/C",[11],71.8%
same,"viability, T/C",[12],67%
COc1c(OCCCN2CCOCC2)ccc2c3n(c(=NC(=O)c4cnc(N)nc4)nc12)CCN3 + Cc1c(S(C)(=O)=O)c(-c2cc(F)cc(N3CCN(c4ccc(NS(=O)(=O)c5ccc(NC(CCN6CCC(C(=O)OCCCP(=O)(O)O)CC6)CSc6ccccc6)c(S(=O)(=O)C(F)(F)F)c5)cc4)CC3)c2)c(-c2ccc(Cl)cc2)n1C(C)C,IC50,second compound 0.1 µM,46.9 nM
same,IC50,second compound 0.316 µM,28.4 nM
same,IC50,second compound 1 µM,18.9 nM
same,IC50,second compound 3.16 µM,10.5 nM
same,IC50,second compound 10 µM,3.16 nM
same,"viability, T/C",[1],71%
same,"viability, T/C",[2],67.5%
same,"viability, T/C",[3],42.1%
same,"viability, T/C",[4],51.2%
same,"viability, T/C","second compound 0.1 µM, first compound 0.316 µM",29.9%
same,"viability, T/C","second compound 0.1 µM, first compound 1 µM",10.1%
same,"viability, T/C",[5],75.6%
same,"viability, T/C",[6],56.6%
same,"viability, T/C",[7],44.4%
same,"viability, T/C",[8],47.9%
same,"viability, T/C","second compound 0.316 µM, first compound 0.316 µM",16.4%
same,"viability, T/C","second compound 0.316 µM, first compound 1 µM",10.5%
same,"viability, T/C",[9],57.9%
same,"viability, T/C",[10],61.3%
same,"viability, T/C",[11],41.5%
same,"viability, T/C",[12],27.7%
same,"viability, T/C","second compound 1 µM, first compound 0.316 µM",14.2%
same,"viability, T/C","second compound 1 µM, first compound 1 µM",9.33%
same,"viability, T/C","second compound 3.16 µM, first compound 0.00316 µM",59%
same,"viability, T/C","second compound 3.16 µM, first compound 0.01 µM",50.5%
same,"viability, T/C","second compound 3.16 µM, first compound 0.0316 µM",41.7%
same,"viability, T/C","second compound 3.16 µM, first compound 0.1 µM",29%
same,"viability, T/C","second compound 3.16 µM, first compound 0.316 µM",23.9%
same,"viability, T/C","second compound 3.16 µM, first compound 1 µM",9.13%
same,"viability, T/C","second compound 10 µM, first compound 0.00316 µM",48.7%
same,"viability, T/C","second compound 10 µM, first compound 0.01 µM",57.3%
same,"viability, T/C","second compound 10 µM, first compound 0.0316 µM",34%
same,"viability, T/C","second compound 10 µM, first compound 0.1 µM",53.7%
same,"viability, T/C","second compound 10 µM, first compound 0.316 µM",11.1%
same,"viability, T/C","second compound 10 µM, first compound 1 µM",19.6%
C#Cc1c(F)ccc2cc(O)cc(-c3ncc4c(N5CC6CCC(C5)N6)nc(OCC56CCCN5CC(F)C6)nc4c3F)c12 (stereo not given) + CCN1C(C(=O)NC23CCC(C(=O)O)(CC2)CC3)C(c2cccc(Cl)c2F)C2(C(=O)Nc3cc(Cl)ccc32)C12CCCCC2,IC50,second compound 0.03 µM,> 10000 nM
same,IC50,second compound 0.0949 µM,> 10000 nM
same,IC50,second compound 0.3 µM,> 10000 nM
same,IC50,second compound 0.949 µM,> 10000 nM
same,IC50,second compound 3 µM,> 10000 nM
same,"viability, T/C","second compound 0.03 µM, first compound 0.0316 µM",98.9%
same,"viability, T/C","second compound 0.03 µM, first compound 0.1 µM",86%
same,"viability, T/C","second compound 0.03 µM, first compound 0.316 µM",102%
same,"viability, T/C","second compound 0.03 µM, first compound 1 µM",89.6%
same,"viability, T/C","second compound 0.03 µM, first compound 3.16 µM",96.7%
same,"viability, T/C","second compound 0.03 µM, first compound 10 µM",89.6%
same,"viability, T/C","second compound 0.0949 µM, first compound 0.0316 µM",105%
same,"viability, T/C","second compound 0.0949 µM, first compound 0.1 µM",83.2%
same,"viability, T/C","second compound 0.0949 µM, first compound 0.316 µM",93.9%
same,"viability, T/C","second compound 0.0949 µM, first compound 1 µM",79.5%
same,"viability, T/C","second compound 0.0949 µM, first compound 3.16 µM",91%
same,"viability, T/C","second compound 0.0949 µM, first compound 10 µM",61.9%
same,"viability, T/C","second compound 0.3 µM, first compound 0.0316 µM",80.2%
same,"viability, T/C","second compound 0.3 µM, first compound 0.1 µM",66.7%
same,"viability, T/C","second compound 0.3 µM, first compound 0.316 µM",75%
same,"viability, T/C","second compound 0.3 µM, first compound 1 µM",86.1%
same,"viability, T/C","second compound 0.3 µM, first compound 3.16 µM",83.3%
same,"viability, T/C","second compound 0.3 µM, first compound 10 µM",61.8%
same,"viability, T/C","second compound 0.949 µM, first compound 0.0316 µM",86.6%
same,"viability, T/C","second compound 0.949 µM, first compound 0.1 µM",80.3%
same,"viability, T/C","second compound 0.949 µM, first compound 0.316 µM",85.7%
same,"viability, T/C","second compound 0.949 µM, first compound 1 µM",74.9%
same,"viability, T/C","second compound 0.949 µM, first compound 3.16 µM",76.3%
same,"viability, T/C","second compound 0.949 µM, first compound 10 µM",78.5%
same,"viability, T/C","second compound 3 µM, first compound 0.0316 µM",95.8%
same,"viability, T/C","second compound 3 µM, first compound 0.1 µM",102%
same,"viability, T/C","second compound 3 µM, first compound 0.316 µM",76%
same,"viability, T/C","second compound 3 µM, first compound 1 µM",78%
same,"viability, T/C","second compound 3 µM, first compound 3.16 µM",70.1%
same,"viability, T/C","second compound 3 µM, first compound 10 µM",78.6%
